Results: patent US10533010B2, “Substituted indole Mcl-1 inhibitors” (Vanderbilt University, priority 2014, dated 2020)

Target: recombinant Mcl-1 (residues 172-327) (Homo sapiens (Human), UniProt Q07820)
Assay: Fluorescence polarization anisotropy competition assay (FITC-Bak or FITC-Bim BH3 peptide) with Mcl-1
Type: binding
Settings: Table 2; Ki bins given in nM; FITC-Bak or FITC-Bim peptide competition; Ki converted from IC50; read-out: Ki for Inhibition of Mcl-1

recombinant Mcl-1 (residues 172-327), sequence (Q07820 172-327): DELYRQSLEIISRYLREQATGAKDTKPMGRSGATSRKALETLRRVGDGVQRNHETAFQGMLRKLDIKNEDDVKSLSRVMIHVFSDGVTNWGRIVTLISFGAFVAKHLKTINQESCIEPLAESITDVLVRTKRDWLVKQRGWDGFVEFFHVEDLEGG

Compound	Ki
Cc1cc(OCCCc2c3n(c4c(-c5c(C)nn(C)c5C)cccc24)CCCN(Cc2ccc(N4CCCCC4)c(C(=O)O)c2)C3=O)cc(C)c1Cl [I-81, 5-((11-(3-(4-chloro-3,5-dimethylphenoxy)propyl)-1-oxo-7-(1,3,5-trimethyl-1H-pyrazol-4-yl)-4,5-dihydro-1H-[1,4]diazepino[1,2-a]indol-2(3H)-yl)methyl)-2-(piperidin-1-yl)benzoic acid]	51 to 100 nM
Cc1cc(OCCCc2c3n(c4c(-c5c(C)nn(C)c5C)c(Cl)ccc24)[C@H](C)CN(Cc2ccc(C(=O)O)cc2)C3=O)cc(C)c1Cl [I-154, (R)-4-((7-chloro-10-(3-(4-chloro-3,5-dimethylphenoxy)propyl)-4-methyl-1-oxo-6-(1,3,5-trimethyl-1H-pyrazol-4-yl)-3,4-dihydropyrazino[1,2-a]indol-2(1H)-yl)methyl)benzoic acid]	< 50 nM
Cc1cc(OCCCc2c(C(=O)NCC(=O)N[C@@H](Cc3ccccc3)C(=O)O)[nH]c3c(-c4c(C)nn(C)c4C)cccc23)cc(C)c1Cl [I-291, (3-(3-(4-chloro-3,5-dimethylphenoxy)propyl)-7-(1,3,5-trimethyl-1H-pyrazol-4-yl)-1H-indole-2-carbonyl)glycyl-L-phenylalanine]	< 50 nM
Cc1cc(OCCCc2c3n(c4c(-c5c(C)nn(C)c5C)c(Cl)ccc24)CCCNC3=O)cc(C)c1Cl [I-118, 8-chloro-11-(3-(4-chloro-3,5-dimethylphenoxy)propyl)-7-(1,3,5-trimethyl-1H-pyrazol-4-yl)-2,3,4,5-tetrahydro-1H-[1,4]diazepino[1,2-a]indol-1-one]	< 50 nM
Cc1cc(OCCCc2c3n(c4c(-c5c(C)nn(C)c5C)c(Cl)ccc24)[C@H](C)CN(Cc2ccc(C(=O)O)o2)C3=O)cc(C)c1Cl [I-152, (R)-5-((7-chloro-10-(3-(4-chloro-3,5-dimethylphenoxy)propyl)-4-methyl-1-oxo-6-(1,3,5-trimethyl-1H-pyrazol-4-yl)-3,4-dihydropyrazino[1,2-a]indol-2(1H)-yl)methyl)furan-2-carboxylic acid]	< 50 nM
Cc1cc(OCCCc2c(C(=O)N3CCC[C@H]3C(=O)O)[nH]c3c(-c4c(C)nn(C)c4C)c(Cl)ccc23)cc(C)c1Cl [I-337, (6-chloro-3-(3-(4-chloro-3,5-dimethylphenoxy)propyl)-7-(1,3,5-trimethyl-1H-pyrazol-4-yl)-1H-indole-2-carbonyl)-L-proline]	< 50 nM
Cc1cc(OCCCc2c3n(c4c(-c5c(C)nn(C)c5C)c(Cl)ccc24)CCCN(Cc2cc(C(=O)O)cc(OCCC(C)C)n2)C3=O)cc(C)c1Cl [I-302, 2-((8-chloro-11-(3-(4-chloro-3,5-dimethylphenoxy)propyl)-1-oxo-7-(1,3,5-trimethyl-1H-pyrazol-4-yl)-4,5-dihydro-1H-[1,4]diazepino[1,2-a]indol-2(3H)-yl)methyl)-6-(isopentyloxy)isonicotinic acid]	< 50 nM
Cc1cc(OCCCc2c3n(c4c(-c5c(C)nn(C)c5C)c(Cl)ccc24)C[C@@H](C)N(c2ccc(C(=O)O)c4ncccc24)C3=O)cc(C)c1Cl [I-158, (R)-5-(7-chloro-10-(3-(4-chloro-3,5-dimethylphenoxy)propyl)-3-methyl-1-oxo-6-(1,3,5-trimethyl-1H-pyrazol-4-yl)-3,4-dihydropyrazino[1,2-a]indol-2(1H)-yl)quinoline-8-carboxylic acid]	< 50 nM
Cc1cc(OCCCc2c3n(c4c(-c5c(C)nn(C)c5C)c(Cl)ccc24)C[C@H](C)N(Cc2cccc(C(=O)O)c2)C3=O)cc(C)c1Cl [I-136, (S)-3-((7-chloro-10-(3-(4-chloro-3,5-dimethylphenoxy)propyl)-3-methyl-1-oxo-6-(1,3,5-trimethyl-1H-pyrazol-4-yl)-3,4-dihydropyrazino[1,2-a]indol-2(1H)-yl)methyl)benzoic acid]	< 50 nM
Cc1cc(OCCCc2c3n(c4c(-c5c(C)nn(C)c5C)c(Cl)ccc24)CCCN(c2cc(C(=O)O)cc4c2ncn4C)C3=O)cc(C)c1Cl [I-365, 4-(8-chloro-11-(3-(4-chloro-3,5-dimethylphenoxy)propyl)-1-oxo-7-(1,3,5-trimethyl-1H-pyrazol-4-yl)-4,5-dihydro-1H-[1,4]diazepino[1,2-a]indol-2(3H)-yl)-1-methyl-1H-benzo[d]imidazole-6-carboxylic acid]	< 50 nM

Further lines, results first:

Ki	Compound
< 50 nM	Cc1nn(C)c(C)c1-c1cccc2c(CCCOc3cccc4ccccc34)c(C(=O)N(C)c3cccc(C(=O)O)c3)[nH]c12 [I-195, 3-(N-methyl-3-(3-(naphthalen-1-yloxy)propyl)-7-(1,3,5-trimethyl-1H-pyrazol-4-yl)-1H-indole-2-carboxamido)benzoic acid]
< 50 nM	Cc1cc(OCCCc2c3n(c4c(-c5c(C)nn(C)c5C)c(Cl)ccc24)[C@H](C)CN(c2cc(C(=O)O)cc4c2ccn4C)C3=O)cc(C)c1Cl [I-170, (R)-4-(7-chloro-10-(3-(4-chloro-3,5-dimethylphenoxy)propyl)-4-methyl-1-oxo-6-(1,3,5-trimethyl-1H-pyrazol-4-yl)-3,4-dihydropyrazino[1,2-a]indol-2(1H)-yl)-1-methyl-1H-indole-6-carboxylic acid]
< 50 nM	Cc1cc(OCCCc2c(C(=O)N[C@H]3CC[C@@H](C(=O)O)CC3)[nH]c3c(-c4c(C)nn(C)c4C)c(Cl)ccc23)cc(C)c1Cl [I-332, (1s,4s)-4-(6-chloro-3-(3-(4-chloro-3,5-dimethylphenoxy)propyl)-7-(1,3,5-trimethyl-1H-pyrazol-4-yl)-1H-indole-2-carboxamido)cyclohexane-1-carboxylic acid]
< 50 nM	Cc1cc(OCCCc2c3n(c4c(-c5c(C)nn(C)c5C)c(Cl)ccc24)CCCN(c2ccc(CC(=O)O)cc2)C3=O)cc(C)c1Cl [I-237, 2-(4-(8-chloro-11-(3-(4-chloro-3,5-dimethylphenoxy)propyl)-1-oxo-7-(1,3,5-trimethyl-1H-pyrazol-4-yl)-4,5-dihydro-H-[1,4]diazepino[1,2-a]indol-2(3H)-yl)phenyl)acetic acid]
< 50 nM	Cc1cc(OCCCc2c3n(c4c(-c5c(C)nn(C)c5C)c(Cl)ccc24)CCCN(c2csc(C(=O)O)n2)C3=O)cc(C)c1Cl [I-360, 4-(8-chloro-11-(3-(4-chloro-3,5-dimethylphenoxy)propyl)-1-oxo-7-(1,3,5-trimethyl-1H-pyrazol-4-yl)-4,5-dihydro-1H-[1,4]diazepino[1,2-a]indol-2(3H)-yl)thiazole-2-carboxylic acid]
< 50 nM	Cc1cc(OCCCc2c3n(c4c(-c5c(C)nn(C)c5C)c(Cl)ccc24)CCCN(c2cccc(C(=O)NS(C)(=O)=O)c2)C3=O)cc(C)c1Cl [I-368, 3-(8-chloro-11-(3-(4-chloro-3,5-dimethylphenoxy)propyl)-1-oxo-7-(1,3,5-trimethyl-1H-pyrazol-4-yl)-4,5-dihydro-H-[1,4]diazepino[1,2-a]indol-2(3H)-yl)-N-(methylsulfonyl)benzamide]

Same assay, conditions: Table 2; Ki bins given in μM; FITC-Bak or FITC-Bim peptide competition; Ki converted from IC50; read-out: Ki for Inhibition of Mcl-1

Compound	Ki
Cc1cc(OCCCc2c(C(=O)NCc3cc(C(=O)NCc4ccccc4)c(C)o3)[nH]c3c(-c4c(C)nn(C)c4C)cccc23)cc(C)c1Cl [I-275, N-((4-(benzylcarbamoyl)-5-methylfuran-2-yl)methyl)-3-(3-(4-chloro-3,5-dimethylphenoxy)propyl)-7-(1,3,5-trimethyl-1H-pyrazol-4-yl)-1H-indole-2-carboxamide]	1000 to 9990 nM
